We go through 20 molecules from PMC12406203 (Journal of Medicinal Chemistry, 2025).

The target of series [1] is T1, hBChE (Homo sapiens, UniProt P06276). Conditions: for hBChE RA at 100 μM: residual activity at 100 μM, mean ± SD, one experiment in triplicate.
Procedure: (§1) The inhibitory potencies of the compounds against the ChEs were determined using the method of Ellman. […] The final content of DMSO was always 1% [v/v]. […] The initial velocities in the presence (v i ) and absence (v 0) of the test compounds were calculated. The inhibitory potencies were expressed as the residual activities, according to RA = (v i – b)/(v 0 – b), where b is the blank value using phosphate buffer without ChEs. For IC50 determinations, at least seven different concentrations for each compound were used. The IC50 values were obtained by plotting the residual ChE activities against the applied inhibitor concentrations, with the experimental data fitted to a four-parameter logistic function (GraphPad Prism 10.0).
Series [2] has as its target T2, hAChE (Homo sapiens, UniProt P22303). Conditions: residual activity at 100 μM; mean ± SD, one experiment in triplicate.
Procedure: as §1
Series [3] has as its target T3, human p38α MAPK (Homo sapiens, UniProt Q16539). Conditions: for p38α MAPK RA at 100 μM: residual activity at 100 μM, mean ± SD, one experiment in triplicate.
Procedure: (§2) The inhibitory activities against human p38α MAPK were evaluated using the commercially available ADP-Glo Kinase Assay (Promega, Inc., USA).
(§3) For the reference sample, 1% [v/v] DMSO replaced the inhibitor solution. […] The enzyme reaction was started with the addition of the enzyme solution. The DMSO concentration in the test solution was maintained at 1% [v/v]. The plate was incubated for 60 min. Then 5 μL of ADP-Glo reagent was added, followed by a 40 min incubation at room temperature. […] All incubations were performed at room temperature. The RA and IC50 values were calculated as described above (ChEs inhibitory potency).
In series [4] the target is T3, human p38α MAPK. Briefly: biochemical. To be noted: p38α MAPK IC50 ± SEM, two independent experiments, each in triplicate.
Procedure: as §2, §3
In series [5] the target is T1, hBChE. Kind of series: biochemical. To be noted: hBChE IC50 ± SEM, two independent experiments, each in triplicate.
Procedure: as §1
In series [6] the target is p38α MAPK.
The target in series [7] is hBChE.
The subject of series [8] is hAChE.
Series [9] addresses p38α MAPK. The source holds these as a separate data set.
Series [10] concerns the target T2, hAChE. Briefly: biochemical. To be noted: hAChE IC50 ± SEM, two independent experiments, each in triplicate.
Procedure: as §1
Series [11] has as its target hAChE. The source holds these as a separate data set.
The target of series [12] is hBChE. This is another data set of the same source.

Several values for one entry are separate records, joined by “and”; a condition that tells them apart may be missing. Equal entries are not always repeated. Where two headings read alike, the source gives them in different places.

T2 sequence (P22303 32-614): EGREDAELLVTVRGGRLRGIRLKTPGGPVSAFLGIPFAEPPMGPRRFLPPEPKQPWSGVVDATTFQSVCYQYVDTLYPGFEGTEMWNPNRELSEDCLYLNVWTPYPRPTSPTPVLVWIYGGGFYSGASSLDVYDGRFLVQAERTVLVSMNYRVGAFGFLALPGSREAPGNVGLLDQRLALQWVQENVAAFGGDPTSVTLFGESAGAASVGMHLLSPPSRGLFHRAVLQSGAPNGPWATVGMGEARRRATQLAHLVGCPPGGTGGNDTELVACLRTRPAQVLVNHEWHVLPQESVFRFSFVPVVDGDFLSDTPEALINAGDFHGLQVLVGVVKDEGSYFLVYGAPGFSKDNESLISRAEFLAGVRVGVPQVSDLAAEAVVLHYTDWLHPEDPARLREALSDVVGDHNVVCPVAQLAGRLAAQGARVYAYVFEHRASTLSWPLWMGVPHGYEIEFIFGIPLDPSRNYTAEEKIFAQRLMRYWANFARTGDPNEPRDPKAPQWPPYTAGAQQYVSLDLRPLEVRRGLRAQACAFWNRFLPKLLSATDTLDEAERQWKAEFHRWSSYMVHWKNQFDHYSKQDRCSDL
T3 sequence (Q16539 whole entry): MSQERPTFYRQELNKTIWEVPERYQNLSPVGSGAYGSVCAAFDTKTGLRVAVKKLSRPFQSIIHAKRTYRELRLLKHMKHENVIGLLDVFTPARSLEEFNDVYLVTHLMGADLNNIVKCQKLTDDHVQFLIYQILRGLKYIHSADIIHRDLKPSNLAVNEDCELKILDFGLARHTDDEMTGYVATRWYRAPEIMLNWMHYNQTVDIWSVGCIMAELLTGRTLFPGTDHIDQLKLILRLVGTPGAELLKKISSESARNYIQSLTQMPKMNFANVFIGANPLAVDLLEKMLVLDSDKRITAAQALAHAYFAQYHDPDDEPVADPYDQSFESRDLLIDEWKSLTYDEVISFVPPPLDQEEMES
T1 sequence (P06276 29-602): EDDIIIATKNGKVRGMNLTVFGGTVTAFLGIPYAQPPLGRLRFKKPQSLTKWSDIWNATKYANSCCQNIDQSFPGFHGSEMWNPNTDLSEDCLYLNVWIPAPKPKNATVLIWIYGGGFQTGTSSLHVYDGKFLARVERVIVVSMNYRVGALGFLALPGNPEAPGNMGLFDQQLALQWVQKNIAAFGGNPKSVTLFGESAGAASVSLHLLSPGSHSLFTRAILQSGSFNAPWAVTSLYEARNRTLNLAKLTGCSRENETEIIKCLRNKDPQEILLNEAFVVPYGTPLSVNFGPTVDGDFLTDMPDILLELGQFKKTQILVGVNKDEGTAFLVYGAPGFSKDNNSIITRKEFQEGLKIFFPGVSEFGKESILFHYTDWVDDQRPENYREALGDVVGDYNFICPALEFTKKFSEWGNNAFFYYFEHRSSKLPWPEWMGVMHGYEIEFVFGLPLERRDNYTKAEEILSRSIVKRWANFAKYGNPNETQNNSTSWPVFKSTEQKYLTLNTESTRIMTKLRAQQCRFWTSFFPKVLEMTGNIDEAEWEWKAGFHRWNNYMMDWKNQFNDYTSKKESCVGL

The term IC50 denotes the concentration that inhibits the measured activity by half. Consider “5-(2,4-Difluorobenzyl)-N-(2-(dimethylamino)ethyl)-1-methyl-2H-indazole-6-carboxamide [Compound 109]”, for which the IC50 on hBChE [1] (read-out: hBChE IC50 ± SEM, two independent experiments, each in triplicate) amounted to 1060 ± 970 nM. Besides, the “hAChE RA at 100 μM” value at hAChE [2] is given as 81.4 ± 7.5%. Moreover, the “p38α MAPK RA at 100 μM” value on human p38α MAPK [3] was 89.6% and 89.6 ± 13.6%.

Consider `COCC1CCCN(CCNC(=O)c2cc3c(cnn3CC3CCCCC3)cc2Oc2ccc(F)cc2F)C1` (racemic) [Compound 79, (±)-1-(Cyclohexylmethyl)-5-(2,4-difluorophenoxy)-N-(2-(3-(methoxymethyl)piperidin-1-yl)ethyl)-1H-indazole-6-carboxamide], for which the IC50 amounted to 379 ± 126 nM at human p38α MAPK [4], 3.6 ± 0.825 µM at hBChE [5], 379 nM against p38α MAPK [6] and 3.6 µM at hBChE [7]. Besides, the “RA at 100 µM” value with hAChE [8] is listed as “*11.6 ± 1.3%”.

On to `CO/N=C(\C(=O)N[C@@H]1C(=O)N2C(C(=O)O)=C(COC(N)=O)CS[C@H]12)c1ccco1` [Cefuroxime, reference compound], for which the “CNS (+/–)” value (PAMPA) is “CNS– (key: CNS+ indicates high predicted BBB permeation [Pe (×10–6 cm/s) > 4.0]; CNS– indicates low predicted BBB permeation [Pe (×10–6 cm/s) < 2.0])”.

On to `CN(C)CCNC(=O)c1cc2c(cnn2CC2CC2)cc1Oc1ccc(F)cc1F` [Compound 73, 1-(Cyclopropylmethyl)-5-(2,4-difluorophenoxy)-N-(2-(dimethylamino)ethyl)-1H-indazole-6-carboxamide], for which the IC50 is 362 ± 139 nM against human p38α MAPK [4]; 10.5 ± 1.51 µM at hBChE [5]; 362 nM at p38α MAPK [9]; 83.9 ± 28.9 µM against hAChE [10]; 83.9 µM at hAChE [11].

In the case of `CN(C)CCCNC(=O)c1cc2c(cnn2CC2CC2)cc1Oc1ccc(F)cc1F` [Compound 74, 1-(Cyclopropylmethyl)-5-(2,4-difluorophenoxy)-N-(3-(dimethylamino)propyl)-1H-indazole-6-carboxamide], the IC50 turned out to be 96 ± 11 nM against human p38α MAPK [4]; 8.68 ± 1.83 µM at hBChE [5]; 110 ± 38.4 µM against hAChE [10]; 96 nM against p38α MAPK [6]; 110 µM on hAChE [8].

As for `CN(C)CCNC(=O)c1cc2c(cnn2CC2CCCCC2)cc1Oc1ccc(F)cc1F` [Compound 75, 1-(Cyclohexylmethyl)-5-(2,4-difluorophenoxy)-N-(2-(dimethylamino)ethyl)-1H-indazole-6-carboxamide], the 50% inhibitory concentration (IC50) was 142 ± 79 nM against human p38α MAPK [4]; 2.89 µM and 2.9 µM on hBChE [5]; 142 nM against p38α MAPK [9]; 64.4 ± 24.5 µM against hAChE [10]; 64.4 µM at hAChE [11]; 64.4 µM on hAChE [8].

For `O=C(NCCn1ccnc1)c1cc2c(cnn2CC2CCCCC2)cc1Oc1ccc(F)cc1F` [Compound 82, N-(2-(1H-Imidazol-1-yl)ethyl)-1-(cyclohexylmethyl)-5-(2,4-difluorophenoxy)-1H-indazole-6-carboxamide], the IC50 stood at 218 ± 17 nM against human p38α MAPK [4], 18.7 ± 6.1 µM on hBChE [5], 218 nM on p38α MAPK [6] and 18.7 µM against hBChE [7]. Further, the “hAChE RA at 100 μM” value on hAChE [2] was 65.1% and 65.1 ± 2.5%. Also, the “RA at 100 µM” value in the series with hAChE [8] is listed as 65.1 ± 2.5%.

As for `CN(C)CCNC(=O)c1cc2c(cnn2C2C=CCCC2)cc1Oc1ccc(F)cc1F` (stereo not shown) [Compound 83, 1-(Cyclohex-2-en-1-yl)-5-(2,4-difluorophenoxy)-N-(2-(dimethylamino)ethyl)-1H-indazole-6-carboxamide], the IC50 against human p38α MAPK [4] turned out to be 88 ± 20 nM; on hBChE [5], 8.35 µM; on hBChE [12] it was 8.35 µM; at p38α MAPK [9], 88 nM; against hBChE [7] it was 8.35 µM. The “RA at 100 µM” value amounted to 53 ± 3% with hAChE [11] and 52.9 ± 2.7% with hAChE [8]. The “hAChE RA at 100 μM” value on hAChE [2] is 52.9% and 53 ± 3% and 52.9 ± 2.7%.

Regarding `CC(C)Cn1ncc2cc(Oc3ccc(F)cc3)c(C(=O)NCCN(C)C)cc21` [Compound 88, N-(2-(Dimethylamino)ethyl)-5-(4-fluorophenoxy)-1-isobutyl-1H-indazole-6-carboxamide], the IC50 at human p38α MAPK [4] came out at 276 ± 15 nM; against hBChE [5], 6.38 ± 0.511 µM; at p38α MAPK [6] it was 276 nM; at hBChE [7], 6.38 µM; against hAChE [8], 71.3 µM.

Take `CC(C)Cn1ncc2cc(Oc3cccc4ccccc34)c(C(=O)NCCN(C)C)cc21` [Compound 89, N-(2-(Dimethylamino)ethyl)-1-isobutyl-5-(naphthalen-1-yloxy)-1H-indazole-6-carboxamide]: the IC50 against hBChE [5] is 10.6 µM; against hAChE [10], 61.3 µM; on hAChE [11], 61.3 µM; against hAChE [8], 61.3 µM. In the series with p38α MAPK [9], the “RA (1 μM)” value was “RA (1 μM): 24 ± 0%”. Besides, in the series on p38α MAPK [9], the “RA (10 μM)” value is recorded as “RA (10 μM): 5 ± 0%”. For the same molecule, in the series with p38α MAPK [9], the “RA (100 μM)” value is reported as “RA (100 μM): 1 ± 0%”. In the series on p38α MAPK [6], the “RA at 100 µM” value worked out at 0.9 ± 0.3%. For the same molecule, the “p38α MAPK RA (1 μM)” value at human p38α MAPK [3] (residual activity at 1 μM) was found to be 24 ± 0%. In addition, the “p38α MAPK RA (10 μM)” value at human p38α MAPK [3] (residual activity at 10 μM) is 5 ± 0%. In addition, the “p38α MAPK RA at 100 μM” value at human p38α MAPK [3] was 0.9 ± 0.3% and 1 ± 0%.

Regarding `CC(C)Cn1ncc2cc(Oc3ccc4ccccc4c3)c(C(=O)NCCN(C)C)cc21` [Compound 90, N-(2-(Dimethylamino)ethyl)-1-isobutyl-5-(naphthalen-2-yloxy)-1H-indazole-6-carboxamide], the figures for the IC50 on hBChE [5], on hAChE [10] and on hAChE [8] were 11.5 ± 2 µM, 116 ± 27.8 µM and 116 µM, respectively. Besides, the “RA at 100 µM” value in the series with p38α MAPK [6] is listed as 9.5 ± 0.6%. In addition, the “p38α MAPK RA at 100 μM” value on human p38α MAPK [3] was determined as 9.5 ± 0.6%.

For the molecule `COc1ccc(Oc2cc3cnn(CC(C)C)c3cc2C(=O)NCCN(C)C)cc1` [Compound 91, N-(2-(Dimethylamino)ethyl)-1-isobutyl-5-(4-methoxyphenoxy)-1H-indazole-6-carboxamide], the “hBChE RA at 100 μM” value on hBChE [1] was 54.1% and 54.1 ± 1.3%. The “RA at 100 µM” value with p38α MAPK [6] was found to be 0.9 ± 0.3%; in the series with hBChE [7] it was 54.1 ± 1.3%; with hAChE [8], 75.2 ± 3.8%. Further, on hAChE [2], the “hAChE RA at 100 μM” value was 75.2% and 75.2 ± 3.8%. Besides, the “p38α MAPK RA at 100 μM” value at human p38α MAPK [3] was determined as 0.9 ± 0.3%.

Regarding `CC(C)Cn1ncc2cc(Sc3ccc(F)cc3F)c(C(=O)NCCN(C)C)cc21` [Compound 92, 5-((2,4-Difluorophenyl)thio)-N-(2-(dimethylamino)ethyl)-1-isobutyl-1H-indazole-6-carboxamide], the IC50 against human p38α MAPK [4] worked out at 53 ± 17 nM; on hBChE [5] it was 2.25 µM; against hBChE [12], 2.25 µM; at p38α MAPK [9] it was 53 nM; on hBChE [7], 2.25 µM. Besides, the results for the “RA at 100 µM” value in the series on hAChE [11] and in the series with hAChE [8] were 63 ± 3% and 62.8 ± 3.0%, respectively. In addition, the “hAChE RA at 100 μM” value on hAChE [2] was 62.8% and 63 ± 3% and 62.8 ± 3.0%.

For `CN(C)CCNC(=O)c1cc2nn(CC3CCCCC3)cc2cc1Oc1ccc(F)cc1F` [Compound 99, 2-(Cyclohexylmethyl)-5-(2,4-difluorophenoxy)-N-(2-(dimethylamino)ethyl)-2H-indazole-6-carboxamide], the IC50 was 6780 ± 2850 nM at human p38α MAPK [4]; 0.167 ± 0.0203 µM at hBChE [5]; 6780 nM on p38α MAPK [9]; 28.9 ± 8.16 µM on hAChE [10]; 28.9 µM at hAChE [11].

On to `CN(C)CCCNC(=O)c1cc2nn(CC3CCCCC3)cc2cc1Oc1ccc(F)cc1F` [Compound 100, 2-(Cyclohexylmethyl)-5-(2,4-difluorophenoxy)-N-(3-(dimethylamino)propyl)-2H-indazole-6-carboxamide], for which the IC50 against human p38α MAPK [4] turned out to be 16200 ± 2970 nM; against hBChE [5], 0.499 ± 0.045 µM; against hAChE [10] it was 41.9 ± 13.9 µM; against p38α MAPK [6], 16200 nM; against hAChE [8], 41.9 µM.

As for `COC1CCCN(CCNC(=O)c2cc3nn(CC4CCCCC4)cc3cc2Oc2ccc(F)cc2F)C1` (stereo not shown) [Compound 101], the IC50 came out at 0.184 ± 0.031 µM at hBChE [5] and 0.184 µM against hBChE [7]. Further, the figures for the “RA at 100 µM” value with p38α MAPK [6] and in the series on hAChE [8] were 94.3 ± 2.4% and 51.8 ± 1.6%, respectively. In addition, the “hAChE RA at 100 μM” value at hAChE [2] is given as 51.8 ± 1.6%. For the same molecule, the “p38α MAPK RA at 100 μM” value on human p38α MAPK [3] was 94.3% and 94.3 ± 2.4%.

Regarding `O=C(NCCN1CCOCC1)c1cc2nn(CC3CCCCC3)cc2cc1Oc1ccc(F)cc1F` [Compound 103], the IC50 on hBChE [5] was determined as 10.8 ± 2.07 µM; against hBChE [7], 10.8 µM. Moreover, the “RA at 100 µM” value with p38α MAPK [6] is recorded as 66.8 ± 5.9%; in the series with hAChE [8] it was 78.3 ± 2.1%. For the same molecule, on hAChE [2], the “hAChE RA at 100 μM” value turned out to be 78.3 ± 2.1%. Besides, the “p38α MAPK RA at 100 μM” value on human p38α MAPK [3] was 66.8% and 66.8 ± 5.9%.

Consider `O/N=C/c1cc[n+](COC[n+]2ccc(/C=N/O)cc2)cc1` [Obidoxime, reference compound], for which the “CNS (+/–)” value (predicted BBB permeation from Pe) was “CNS– (CNS– indicates low predicted BBB permeation [Pe (×10–6 cm/s) < 2.0])”.

With “Methyl-1-(cyclopropylmethyl)-5-(2,4-difluorophenoxy)-1H-indazole-6-carboxylate [Compound 27]”, the “hBChE RA at 100 μM” value at hBChE [1] is 76.6% and 76.6 ± 11.7%. The “hAChE RA at 100 μM” value at hAChE [2] is 81.1% and 81.1 ± 2.3%. Besides, the IC50 on human p38α MAPK [3] (read-out: p38α MAPK IC50 ± SEM, two independent experiments, each in triplicate) was 330 ± 158 nM.

With “N-(2-(1H-Pyrrol-1-yl)ethyl)-1-(cyclohexylmethyl)-5-(2,4-difluorophenoxy)-2H-indazole-6-carboxamide [Compound 104]”, the “hBChE RA at 100 μM” value on hBChE [1] was determined as 34.4±1.5%. Further, the “hAChE RA at 100 μM” value at hAChE [2] turned out to be 67.6 ± 2.3%. The “p38α MAPK RA at 100 μM” value at human p38α MAPK [3] is 81.2% and 81.2 ± 6.6%.
